Data reported in patent US20230323293A1, “EXPANSION CULTURE MEDIUM AND CULTURE METHOD FOR NEURAL CELLS” (INSTITUTE OF ZOOLOGY, CHINESE ACADEMY OF SCIENCES, priority 2020, published 2023).

Assays:
astrocytes = test: Expansion experiment of astrocytes; assay type: cell-based, human; settings: 10 μM, P2 to P6, versus control group
Procedure: (1) hESCs were cultured and differentiation was conducted until about 80% confluence. On the 0th day, the cells were dissociated with Dispase (1 U/mL), and the bottom cell mass was harvested and plated in an ultra-low adsorption 10 cm culture dish. • (2) From the 1st day, the neural induction was started by replacing with NIM medium supplemented with neural induction molecules 100 nM LDN193189 and 10 μM SB431542. […]

GABA progenitor cells = test: Proliferation of GABA progenitor cells; assay type: cell-based, human; settings: 10 μM, P4 to P5, versus control group
Procedure: (1) hESCs were cultured and differentiation was conducted until about 80% confluence. On the 0th day, the cells were dissociated with Dispase (1 U/mL), and the bottom cell mass was harvested and spread on an ultra-low adsorption 10 cm culture dish.
(2) From the 1st day, the neural induction was started by using NIM medium supplemented with 100 nM LDN193189, 10 μM SB431542, and 2 μM XAV939. […]

microglial progenitors = test: Proliferation of microglial progenitors; assay type: cell-based; settings: 10 μM
Procedure: • (1) On the 0th day, ESCs were digested with Accutase into single cells, counted and inoculated into a V-bottom 96-well plate at a concentration of 10,000/well, and cultured statically. • (2) From the 0th to 4th day, the medium was microglial induction medium: DMEM/F12, 20% KOSR, 1× Glutamax, 1×NEAA, 50 ng/ml BMP4, 50 ng/ml VEGF, 20 ng/ml SCF, 10 μM Y-27632. • (3) On the 4th day, the suspended EBs were subjected to adherent culture in a 6-well plate, the culture medium was changed on the 4th day and then the static culture was carried out until the 11th day. From the 4th to 11th day, the culture medium was microglial differentiation medium: X-VIVO15, 1× Glutamax, 25 ng/ml IL-34, 50 ng/ml M-CSF. At this stage, Blebbistatin was added at a concentration of 10 μM. • (4) On the 11th day, the single cells suspended in the medium were collected and counted, and the EBs were continued to be cultured with the microglial differentiation medium, and the suspended cells in the supernatant were collected every 7 days for a total of 3 collections. • (5) Maturation of microglial cells: The supernatant was discarded after centrifugation, the cells were resuspended in a microglial maturation medium and inoculated on Matrigel pre-coated culture plates. The microglial cells matured after being continuously cultured for 14 days. […]

NSCs = test: Proliferation of neural stem cells; assay type: cell-based, human; settings: 10 μM, P4 to P6
Procedure: The differentiation method was referred to Tchieu et al., A Modular Platform for Differentiation of Human PSCs into All Major Ectodermal Lineages. 2017, Cell Stem Cell 21, 399-410.
NSCs were cultured with expansion medium after adherence, DMEM/F12 (1×, Gibco) supplemented with […] human (EGF) (R&D), […] (bFGF) (R&D), 5 μg/ml Heparin (Sigma), 2% B27 (Gibco), 1× GlutaMAX, and 10 μM Blebbistatin was added to the experimental group. Half of the culture medium was changed every day.

Cc1ccc2c(c1)C(=O)[C@]1(O)CCN(c3ccccc3)C1=N2 [Blebbistatin, (S)-(−)-Blebbistatin]
expansion ability of astrocytes (astrocytes): significantly improved | expansion ability of GABA progenitor cells (GABA progenitor cells): significantly improved | proliferation of microglial progenitors and differentiation efficiency (microglial progenitors): could promote the proliferation of microglial progenitors and improve the differentiation efficiency | number of suspension cells collected (microglial progenitors; first two collections, versus control group): increased significantly | expansion of NSCs (NSCs): significantly promoted the expansion of NSCs
